Measurements from ChEMBL document CHEMBL1146058, “Discovery of trans-3,4'-bispyridinylethylenes as potent and novel inhibitors of protein kinase B (PKB/Akt) for the treatment of cancer: Synthesis and biological evaluation” (Bioorg Med Chem Lett, 2006).

What was measured:
[1] = biological target: T1, RAC-alpha serine/threonine-protein kinase (Homo sapiens, UniProt P31749); assay: Inhibition of Akt1 at 50 uM
[2] = biological target: T1, RAC-alpha serine/threonine-protein kinase; assay: Inhibition of Akt1 at 5.33 uM
[3] = Cmax in mouse at 10 mg/kg; format: ADME, organism-based; set-up: dose 10 mg/kg; details: in vivo
[4] = Oral bioavailability in mouse at 10 mg/kg; format: ADME, organism-based; details: in vivo
[5] = Volume of distribution in mouse at 10 mg/kg; format: ADME, organism-based; set-up: dose 10 mg/kg; details: in vivo, read-out: Vdss
[6] = Half life in mouse at 10 mg/kg; format: ADME, organism-based; set-up: dose 10 mg/kg; details: in vivo
[7] = Plasma clearance in mouse at 10 mg/kg; format: ADME, organism-based; set-up: dose 10 mg/kg
[8] = biological target: T1, RAC-alpha serine/threonine-protein kinase; assay: Inhibition of Akt1 using 10 uM ATP
[9] = Oral bioavailability in dog at 2.5 mg/kg; format: ADME, organism-based, Canis lupus familiaris; details: in vivo
[10] = Cmax in dog at 2.5 mg/kg; format: ADME, organism-based, Canis lupus familiaris; set-up: dose 2.5 mg/kg; details: in vivo
[11] = Half life in mouse at 30 mg/kg; format: ADME, organism-based; set-up: dose 30 mg/kg; details: in vivo
[12] = Cmax in mouse at 30 mg/kg; format: ADME, organism-based; set-up: dose 30 mg/kg; details: in vivo
[13] = Half life in dog at 2.5 mg/kg; format: ADME, organism-based, Canis lupus familiaris; set-up: dose 2.5 mg/kg; details: in vivo
[14] = Plasma clearance in rat at 5 mg/kg; format: ADME, organism-based; set-up: dose 5 mg/kg
[15] = Volume of distribution in mouse at 30 mg/kg; format: ADME, organism-based; set-up: dose 30 mg/kg; details: in vivo, read-out: Vdss
[16] = Volume of distribution in dog at 2.5 mg/kg; format: ADME, organism-based, Canis lupus familiaris; set-up: dose 2.5 mg/kg; details: in vivo, read-out: Vdss
[17] = Oral bioavailability in rat at 5 mg/kg; format: ADME, organism-based; details: in vivo
[18] = Oral bioavailability in monkey at 2.5 mg/kg; format: ADME, organism-based, Macaca mulatta; details: rhesus monkey, in vivo
[19] = Volume of distribution in monkey at 2.5 mg/kg; format: ADME, organism-based, Macaca mulatta; set-up: dose 2.5 mg/kg; details: rhesus monkey, in vivo, read-out: Vdss
[20] = Cmax in rat at 5 mg/kg; format: ADME, organism-based; set-up: dose 5 mg/kg; details: in vivo
[21] = Half life in rat at 5 mg/kg; format: ADME, organism-based; set-up: dose 5 mg/kg; details: in vivo
[22] = Oral bioavailability in mouse at 30 mg/kg; format: ADME, organism-based; details: in vivo
[23] = Half life in monkey at 2.5 mg/kg; format: ADME, organism-based, Macaca mulatta; set-up: dose 2.5 mg/kg; details: rhesus monkey, in vivo
[24] = Volume of distribution in rat at 5 mg/kg; format: ADME, organism-based; set-up: dose 5 mg/kg; details: in vivo, read-out: Vdss
[25] = Plasma clearance in mouse at 30 mg/kg; format: ADME, organism-based; set-up: dose 30 mg/kg
[26] = Plasma clearance in monkey at 2.5 mg/kg; format: ADME, organism-based, Macaca mulatta; set-up: dose 2.5 mg/kg; details: rhesus monkey
[27] = Cmax in monkey at 2.5 mg/kg; format: ADME, organism-based, Macaca mulatta; set-up: dose 2.5 mg/kg; details: rhesus monkey, in vivo
[28] = Plasma clearance in dog at 2.5 mg/kg; format: ADME, organism-based, Canis lupus familiaris; set-up: dose 2.5 mg/kg
MIA PaCa-2 = assay: Antiproliferative activity against MiaPaCa-2 cells by MTT assay; format: functional, cell-based; details: Homo sapiens
[29] = biological target: T1, RAC-alpha serine/threonine-protein kinase; assay: Inhibition of Akt1 at 0.99 uM

T1 sequence (P31749 whole entry): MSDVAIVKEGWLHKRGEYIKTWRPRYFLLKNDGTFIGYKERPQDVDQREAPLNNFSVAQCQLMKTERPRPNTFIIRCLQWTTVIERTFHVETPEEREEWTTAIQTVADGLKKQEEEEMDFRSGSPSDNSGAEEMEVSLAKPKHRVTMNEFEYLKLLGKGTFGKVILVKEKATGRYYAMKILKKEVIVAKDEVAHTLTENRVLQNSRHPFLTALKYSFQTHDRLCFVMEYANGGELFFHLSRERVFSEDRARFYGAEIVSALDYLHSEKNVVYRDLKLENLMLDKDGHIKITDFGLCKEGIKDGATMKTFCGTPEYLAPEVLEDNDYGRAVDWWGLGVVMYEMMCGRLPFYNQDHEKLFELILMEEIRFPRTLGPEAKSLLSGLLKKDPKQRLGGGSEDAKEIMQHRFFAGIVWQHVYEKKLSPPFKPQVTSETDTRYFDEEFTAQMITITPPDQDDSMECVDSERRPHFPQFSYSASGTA

For N[C@H](COc1cnccc1/C=C/c1ccncc1)Cc1ccccc1, the inhibition [1] was 29%.
In the case of N[C@H](COc1cncc(/C=C/c2ccccc2)c1)Cc1c[nH]c2ccccc12, the inhibition [2] is reported as 17%.
For N[C@H](CNc1cnc(Cl)c(/C=C/c2ccncc2)c1)Cc1c[nH]c2ccccc12, the Cmax [3] was < 20 ng/mL, the bioavailability [4] was 0% and the Vd [5] was 9.5 L/kg. The half-life [6] was 0.6 h and the clearance [7] was 190 mL/min/kg.
With N[C@H](COc1cc(/C=C/c2ccncc2)ccn1)Cc1c[nH]c2ccccc12 the inhibition [2] was 16%.
With N[C@H](COc1cncc(/C=C/c2ccncc2)c1)C(=O)Nc1ccc2ccccc2c1 the inhibition [2] was 4%.
With C(=C\c1cncc(OCCCc2c[nH]c3ccccc23)c1)/c1ccncc1 the IC50 [8] was > 50 µM.
Compound N[C@H](COc1cccc(/C=C/c2ccncc2)c1)Cc1c[nH]c2ccccc12 has an inhibition [2] of 35%.
For N[C@H](COc1cnc(Cl)c(/C=C/c2ccncc2)c1)Cc1c[nH]c2ccccc12, the bioavailability [9] was 45%, the Cmax [10] was 120 ng/mL and the half-life [11] was 0.8 h. The Cmax [12] was 940 ng/mL, the half-life [13] was 5.4 h and the clearance [14] was 36.7 mL/min/kg. The Vd [15] was 4.8 L/kg, the Vd [16] was 11.1 L/kg and the bioavailability [17] was 17%. For the same compound, the bioavailability [18] was 12%, the Vd [19] was 4.2 L/kg and the Cmax [20] was 60 ng/mL. The half-life [21] was 3.1 h, the bioavailability [22] was 11% and the half-life [23] was 3 h. For the same compound, the Vd [24] was 9.9 L/kg, the clearance [25] was 68.3 mL/min/kg and the clearance [26] was 16.2 mL/min/kg. For the same compound, the Cmax [27] was 60 ng/mL and the clearance [28] was 23.3 mL/min/kg.
For N[C@H](CCc1cnc(Cl)c(/C=C/c2ccncc2)c1)Cc1c[nH]c2ccccc12, the Cmax [3] was 90 ng/mL, the bioavailability [4] was < 10% and the Vd [5] was 4.9 L/kg. For the same compound, the half-life [6] was 0.2 h and the clearance [7] was 288 mL/min/kg.
With N[C@H](COc1cncc(/C=C/c2ccncc2)c1)Cc1csc2ccccc12 the clearance [14] was 16.7 mL/min/kg, the bioavailability [17] was 43% and the Cmax [20] was 620 ng/mL. The half-life [21] was 2.5 h and the Vd [24] was 3.6 L/kg.
Compound N[C@H](COc1cncc(/C=C/c2ccncc2)c1)Cc1c[nH]c2ccccc12 has a bioavailability [9] of 52%, a Cmax [10] of 100 ng/mL and a half-life [11] of 0.8 h. It also gave a Cmax [12] of 2780 ng/mL, a half-life [13] of 3.2 h and a clearance [14] of 20 mL/min/kg. It also gave a Vd [15] of 6.5 L/kg, a Vd [16] of 12.8 L/kg and a bioavailability [17] of 21%. It also gave a bioavailability [18] of 12%, a Vd [19] of 9.1 L/kg and a Cmax [20] of 300 ng/mL. The half-life [21] was 3.1 h, the bioavailability [22] was 39% and the half-life [23] was 3.7 h. It also gave a Vd [24] of 5.2 L/kg, a clearance [25] of 95 mL/min/kg and a clearance [26] of 26.7 mL/min/kg. The IC50 (MIA PaCa-2) was 12 µM, the Cmax [27] was 40 ng/mL and the clearance [28] was 41.7 mL/min/kg.
Compound N[C@H](COc1cncc(/C=C/c2ccncc2)c1)C(=O)O has an inhibition [2] of 11%.
Work on N[C@@H](Cc1c[nH]cn1)C(=O)Nc1cncc(/C=C/c2ccncc2)c1 yielded an inhibition [29] of 73%.
